The results in this text go back to patent US11767286B2, “Phenylpropionate compound, preparation method for same, and applications thereof” (SUZHOU PHARMAVAN CO., LTD, priority 2017, dated 2023).

SMILES strings stand for the structures.

The experiment relates to SD rat model of focal ischemia-reperfusion. The experiment in a line: Pharmacodynamic (administration) time window in SD rat model of focal ischemia-reperfusion (MCAO). It counts as in vivo, SD rats. The settings on record: for Score of Symptoms of Neurological Deficits: 48 h, modified Bederson 5-point scale; for Infarction area: evaluated after 48 h, mean ± standard error. Here is the method: In this example, Compound A was measured for a pharmacodynamic time window by a method described below.
Trial method: A cerebral ischemia reperfusion model of middle cerebral artery occlusion (MCAO) was prepared by an internal carotid artery suture method. An animal was anesthetized with 10% chloral hydrate (3.6 mL/kg) and then fixed on an operating table in a supine position. Its skin was disinfected, and a midline incision was made on the neck. The right common carotid artery, external carotid artery, and internal carotid artery were separated, the vagus nerve was gently striped off, and the external carotid artery was ligated and cut. The common carotid artery was clamped at the proximal end. […] The nylon thread was advanced through the bifurcation of the common carotid artery into the internal carotid artery, and then was slowly inserted until there was slight resistance (about 20 mm from the bifurcation) to block all the blood supply to the middle cerebral artery. 2 h after cerebral ischemia, the nylon thread was gently pulled out to restore blood supply for reperfusion, and the neck skin was sutured and disinfected. The animal was put back in a cage and raised. During the modeling operation, animals with abnormal conditions due to anesthesia, surgery, etc. were excluded, and successfully modeled animals were randomly grouped. Schemes were set according to trial doses, and drug treatment was given 3 h, 4 h, and 5 h after cerebral ischemia-reperfusion. Death conditions were recorded every day after the surgery, and indicators were evaluated after 48 h. In the whole trial process, general conditions were observed, mainly including: death, coma, breathing, urine and feces traits, hair colors, mental status, vomiting and vomitus, bleeding, convulsion, spasm, etc. Abnormal animals due to unexpected factors were excluded. Finally, unblinding was conducted by a person who made blind trials.
Evaluated indicator: (1) Evaluation of symptoms of neurological deficits: The symptoms of neurological deficits were evaluated by using a modified Bederson 5-point scale. A single-blind method was used for evaluating the symptoms of neurological deficits in rats with brain trauma. That is, a trial designer marked animals in accordance with groups, and an experimenter who scored the symptoms of neurological deficits had no knowledge of how the animals were grouped. After scoring was completed, the scorer submitted scoring results for various marks to the designer, and the designer performed unblinding to obtain scores of animals in each trial group. (2) Measurement of cerebral infarction area: A method reported in the literature was used. An animal was anesthetized with 10% chloral hydrate and decapitated to collect brain. The olfactory bulb, cerebellum and lower brain stem were removed. Blood stains on the surface of the brain were rinsed with normal saline, the residual water stains on the surface were absorbed, and the brain was placed at −80° C. for 7 min. After the brain was taken out, a coronal section was immediately made at downwards and vertical to the sight intersection plane, and brain slices were made every 2 mm backwards. Brain slices were placed in a TTC (20 g/L) dye solution prepared with 0.9% normal saline, and incubated at 37° C. for 90 min. Normal brain tissues were stained deep red, and ischemic brain tissues were pale-white. After rinsed with normal saline, the brain sections were quickly arranged in order from front to back, the residual water stains on the surface were absorbed to dryness, and pictures were taken. Image analysis software was used for statistics on the pictures. Ischemic area (white region) on the right side and total area on the right side were delineated, and a percentage of the cerebral infarction area was calculated by the following formula: […]
Statistical analysis: Quantitative data is expressed as mean value±standard error. […]

Where [1] appears, read: drug given 3 h after reperfusion.
[2] abbreviates: drug given 4 h after reperfusion.
Setting [3] is: drug given 5 h after reperfusion.

In the case of `COc1cc(CCC(=O)O[C@H]2C[C@H]3CC[C@]2(C)C3(C)C)cc(F)c1O` [Compound A], the treatment time window entry (after ischemia (2 h ischemia then reperfusion)) is reported as “not less than 6 h”. The “Score of Symptoms of Neurological Deficits” value reads like this: under setting [1], 2.04 ± 0.12; under setting [2], 2.13 ± 0.14; under setting [3], 2.42 ± 0.17. Besides, the Infarction area is, setting by setting: under setting [1], 23.56 ± 2.86 %; under setting [2], 24.54 ± 2.53 %; under setting [3], 32.43 ± 2.13%.
